# Data published in patent publication US20170042880A1, “Method of Treating Lung Adenocarcinoma” (Exelixis, Inc., priority 2014, published 2017).
# Read-outs that look alike come from different tables or passages of the source.
# Legend:
# [1] = system: NCI-H2228 cells (EML4-ALK fusion); test: BrdU ELISA proliferation of NCI-H2228 cells; format: cell-based; conditions: Homo sapiens, BrdU incorporation
# Experimental: (§1) Both HCC-78 and NCI-H2228 cells were received from DSMZ and ATCC respectively as a frozen biological sample thawed into a T-75 flask (Nunc) and grown until 80 to 90% confluent for adherent cells or until cells were at a density of 1-2×10^6 cells/mL for suspension cells.
# (§2) Cells were grown at 37° C. in a humidified, 5% CO2 atmosphere for 16 hours. […] Cells were assayed for proliferation by monitoring BrdU incorporation. […] After BrdU labelling, cells were fixed with FixDenat solution. anti-BrdU peroxidase (POD) conjugate was added and plates were washed with 1×PBS. Substrate solution was added, and luminescence measurements were taken on a Victor Wallac V plate reader (Perkin Elmer).
# RET = RET (Homo sapiens, UniProt P07949); conditions: cited from earlier work
# Sequence of RET (P07949 29-1114, species assumed): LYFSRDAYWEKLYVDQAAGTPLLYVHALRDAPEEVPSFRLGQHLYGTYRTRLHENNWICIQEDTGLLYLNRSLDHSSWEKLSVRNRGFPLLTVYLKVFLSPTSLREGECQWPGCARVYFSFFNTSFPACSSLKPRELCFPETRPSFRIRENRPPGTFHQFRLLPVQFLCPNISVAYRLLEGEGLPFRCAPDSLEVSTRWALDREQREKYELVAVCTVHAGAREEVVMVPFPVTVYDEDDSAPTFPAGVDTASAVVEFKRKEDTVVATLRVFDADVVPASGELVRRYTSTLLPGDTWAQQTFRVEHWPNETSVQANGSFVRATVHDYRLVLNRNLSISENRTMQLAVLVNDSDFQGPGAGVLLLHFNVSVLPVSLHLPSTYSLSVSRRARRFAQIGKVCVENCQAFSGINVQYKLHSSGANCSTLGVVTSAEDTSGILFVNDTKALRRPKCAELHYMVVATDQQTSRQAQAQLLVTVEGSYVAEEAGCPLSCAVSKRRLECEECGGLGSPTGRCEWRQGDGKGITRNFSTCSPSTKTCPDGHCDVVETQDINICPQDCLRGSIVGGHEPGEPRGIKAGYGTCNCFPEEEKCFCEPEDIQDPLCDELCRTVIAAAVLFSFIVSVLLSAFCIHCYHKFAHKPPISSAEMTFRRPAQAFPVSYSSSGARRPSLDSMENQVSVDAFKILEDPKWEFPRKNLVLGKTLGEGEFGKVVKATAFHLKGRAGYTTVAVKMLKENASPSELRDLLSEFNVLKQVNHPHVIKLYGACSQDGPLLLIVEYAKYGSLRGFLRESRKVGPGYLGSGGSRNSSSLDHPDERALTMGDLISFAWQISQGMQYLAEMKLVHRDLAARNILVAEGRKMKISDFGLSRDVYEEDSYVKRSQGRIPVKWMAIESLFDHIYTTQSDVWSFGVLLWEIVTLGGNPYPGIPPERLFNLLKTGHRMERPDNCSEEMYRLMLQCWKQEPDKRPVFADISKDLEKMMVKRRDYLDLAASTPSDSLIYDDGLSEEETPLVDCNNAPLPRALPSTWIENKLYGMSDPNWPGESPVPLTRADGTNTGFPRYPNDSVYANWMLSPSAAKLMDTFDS
# [2] = system: HCC-78 NSCLC cells (SLC34A2-ROS1 fusion); test: ROS1-dependent proliferation of HCC-78 NSCLC cells (BrdU ELISA); format: cell-based; conditions: Homo sapiens
# Experimental: as §1, §2
# SLC34A2-ROS1 fusion = biological target: T1, SLC34A2-ROS1 fusion (Homo sapiens, UniProt P08922); test: Inhibition of ROS1 phosphorylation in HCC-78 cells (western blot); format: cell-based; conditions: single escalating doses, 3 hour incubation, versus Crizotinib
# T1 construct: a portion of the ROS1 polypeptide comprising the kinase domain of the ROS1 protein; N-terminal portion of SLC34A2 (natural fusion partner, O95436); host or cells: HCC-78 (human NSCLC adenocarcinoma); the other entry of the earlier key: SLC34A2 (O95436, Sodium-dependent phosphate transport protein 2B)
# T1 sequence (P08922 1945-2222 limits assumed): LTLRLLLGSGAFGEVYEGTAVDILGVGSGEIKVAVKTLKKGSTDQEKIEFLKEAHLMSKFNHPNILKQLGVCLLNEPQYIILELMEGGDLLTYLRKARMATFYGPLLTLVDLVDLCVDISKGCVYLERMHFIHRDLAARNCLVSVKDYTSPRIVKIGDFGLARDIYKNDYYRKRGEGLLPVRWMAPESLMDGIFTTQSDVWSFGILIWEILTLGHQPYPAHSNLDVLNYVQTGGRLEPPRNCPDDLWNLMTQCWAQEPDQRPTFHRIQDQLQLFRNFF
# Experimental: HCC-78 cells, a human lung NSCLC adenocarcinoma cell line (DSMZ, ACC 563) harboring the activating SLC34A2-ROS1 fusion and phosphor-Met, were seeded at 3×10^5 cells/well onto 6-well plates (Nunclon, 152795), RPMI 1640 (ATCC, 30-2001) containing 10% FBS (heat-inactivated, Cellgro) and 1% penicillin-streptomycin (Cellgro). DMSO or serial dilutions of compound 1 in fresh medium with 10% FBS in a final concentration of 0.3% DMSO (vehicle) were added to the cells and incubated for 3 hour. After treatment, cells were collected and washed with cold PBS and immediately lysed with 0.15 mL of cold lysis buffer (50 mM Tris HCl, pH 8.0, 150 mM NaCl, 1% NP 40, 0.1% SDS, 0.5% sodium deoxycholate, 1 mM EDTA, 50 mM NaF, 1 mM sodium pyrophosphate, 1 mM Na3VO4, 2 mM PMSF, 10 μg/mL aprotinin, 5 μg/mL leupeptin and 5 pμg/mL pepstatin A). Lysates were collected, and protein concentrations were measured by the BCA method (Pierce). […] The membranes were scanned using the Odyssey Scanner (Li-Cor) and the signal intensity of each band was quantified using ImageQuant (Molecular Devices). IC50 values were calculated based on the signal with compound treatment compared to the vehicle (DMSO) control.
Structure (SMILES),"IC50 ([1]; NCI-H2228, 48 hr incubation, read-out: 48 hr Prolif. IC50) [nM]","IC50 ([1]; NCI-H2228, 72 hr incubation, read-out: 72 hr Prolif. IC50) [nM]",inhibitor of RET (RET),"IC50 ([2]; HCC78, HCC-78, 48 hr incubation, BrdU incorporation, read-out: 48 hr Prolif. IC50) [nM]","IC50 ([2]; HCC78, HCC-78, 72 hr incubation, BrdU incorporation, read-out: 72 hr Prolif. IC50) [nM]",Inhibition of SLC34A2-ROS1 mediated kinase activity (ROS1 phosphorylation) (SLC34A2-ROS1 fusion),"IC50 ([2]; HCC78, 48 h, read-out: 48 hr Prolif. IC50 (nM)) [nM]","IC50 ([2]; HCC78, 72 h, read-out: 72 hr Prolif. IC50 (nM)) [nM]"
"COc1cc2nccc(Oc3ccc(NC(=O)C4(C(=O)Nc5ccc(F)cc5)CC4)cc3)c2cc1OC [Compound 1, N-(4-{[6,7-bis(methyloxy)quinolin-4-yl]oxy}phenyl)-N′-(4-fluorophenyl)cyclopropane-1,1-dicarboxamide]",1000 to 5000,5000 to 10000,potent inhibitor,10 to 100,10 to 100,more potent than the comparator control,,
"C[C@@H](Oc1cc(-c2cnn(C3CCNCC3)c2)cnc1N)c1c(Cl)ccc(F)c1Cl [Crizotinib, 3-[(1R)-1-(2,6-dichloro-3-fluorophenyl)ethoxy]-5-(1-piperidin-4-ylpyrazol-4-yl)pyridin-2-amine, reference compound]",,,,,,,100 to 500,10 to 100
